Experimental data as given in publication PMC5856591 (Cell chemical biology, 2018).
pIC50: −log10 of the molar value.

Columns and labels:
[1] = system: S. cerevisiae wildtype BY4743; assay: growth-inhibitory potency on wildtype S. cerevisiae; details: Saccharomyces cerevisiae, read-out: IC50 [μM] S. cerevisiae wildtype, cell based growth assay, wildtype
S. cerevisiae BY4743Δ8 [2] = assay: growth assay, wildtype versus efflux-deficient wildtypeΔ8; type: cell-based, Saccharomyces cerevisiae; details: ratio of growth IC50 wildtype to wildtypeΔ8
[3] = system: S. cerevisiae SEC14/sec14; assay: growth assay with heterozygous SEC14 deletion strain; type: cell-based, Saccharomyces cerevisiae; details: for IC50: Saccharomyces cerevisiae, SEC14/SEC14, read-out: IC50 [μM] S. cerevisiae SEC14/sec14
HCT116 cells = assay: CellTiter-Glo luminescent cell viability assay; type: cell-based; details: Homo sapiens, HCT-116, 72 h, read-out: IC50 [μM] HCT116
Sec14p = Sec14p (Saccharomyces cerevisiae, UniProt P24280); assay: in vitro [3H]-PtdIns lipid transfer assay, recombinant Sec14p; type: biochemical, S. cerevisiae; details: for inhibition of Sec14p-mediated PtdIns-transfer (in words): 20 μM SMI end-point assay
Chain of Sec14p (P24280 whole entry): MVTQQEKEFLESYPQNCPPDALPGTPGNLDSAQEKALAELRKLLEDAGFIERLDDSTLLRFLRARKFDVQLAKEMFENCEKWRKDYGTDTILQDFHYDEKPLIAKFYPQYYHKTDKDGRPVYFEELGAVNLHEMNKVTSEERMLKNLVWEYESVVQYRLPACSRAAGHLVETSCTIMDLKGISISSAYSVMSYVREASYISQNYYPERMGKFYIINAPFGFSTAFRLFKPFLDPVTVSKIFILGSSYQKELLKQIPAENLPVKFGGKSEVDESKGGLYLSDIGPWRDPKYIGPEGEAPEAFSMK

Sec14p of C. glabrata = Sec14p of C. glabrata (Candida glabrata, UniProt P53989); assay: in vitro [3H]-PtdIns lipid transfer assay, C. glabrata Sec14p; type: biochemical
Chain of Sec14p of C. glabrata (P53989 whole entry): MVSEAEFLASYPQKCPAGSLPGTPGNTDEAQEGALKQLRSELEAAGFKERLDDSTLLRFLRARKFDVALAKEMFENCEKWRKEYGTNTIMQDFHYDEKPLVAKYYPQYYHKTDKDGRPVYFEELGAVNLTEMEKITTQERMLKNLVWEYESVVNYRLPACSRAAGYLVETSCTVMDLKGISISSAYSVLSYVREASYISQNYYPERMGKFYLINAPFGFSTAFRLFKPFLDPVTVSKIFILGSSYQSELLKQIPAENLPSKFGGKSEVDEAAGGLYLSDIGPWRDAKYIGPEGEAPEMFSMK

Sec14p of C. albicans = Sec14p of C. albicans (Candida albicans, UniProt P46250); assay: in vitro [3H]-PtdIns lipid transfer assay, C. albicans Sec14p; type: biochemical; details: for inhibition of PtdIns-transfer by C. albicans protein (in words): tested concentration range
Chain of Sec14p of C. albicans (P46250 whole entry): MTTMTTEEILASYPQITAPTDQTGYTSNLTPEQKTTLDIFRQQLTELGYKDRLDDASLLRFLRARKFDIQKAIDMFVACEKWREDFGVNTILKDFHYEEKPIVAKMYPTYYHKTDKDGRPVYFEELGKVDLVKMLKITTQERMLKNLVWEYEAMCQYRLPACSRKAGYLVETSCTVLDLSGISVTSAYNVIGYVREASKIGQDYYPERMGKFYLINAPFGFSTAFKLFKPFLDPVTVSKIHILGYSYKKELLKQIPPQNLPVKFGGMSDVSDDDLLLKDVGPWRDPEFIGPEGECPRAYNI

[4] = kinetic aqueous solubility; type: physicochemical; details: pH 7.4
[5] = system: cki1 and kes1 “bypass Sec14p” mutants; assay: spot growth assay of bypass Sec14p mutants; type: cell-based, Saccharomyces cerevisiae; details: 20 μM on agar plates
PITPα = target: T1, PITPα (Mus musculus, UniProt P53810); assay: in vitro [3H]-PtdIns lipid transfer assay, mammalian PITPα; details: 20 μM
T1 sequence (P53810 1-271): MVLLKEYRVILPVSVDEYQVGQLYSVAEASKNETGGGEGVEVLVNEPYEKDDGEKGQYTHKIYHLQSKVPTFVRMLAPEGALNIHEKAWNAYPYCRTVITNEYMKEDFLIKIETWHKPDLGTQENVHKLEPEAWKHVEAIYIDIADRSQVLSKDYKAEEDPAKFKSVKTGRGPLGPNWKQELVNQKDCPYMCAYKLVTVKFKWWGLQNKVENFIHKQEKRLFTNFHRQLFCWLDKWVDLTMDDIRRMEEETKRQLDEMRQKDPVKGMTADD

[6] = system: mutant Sec14ps (Y151H, V154G, V155A, S173L, S201G); assay: [3H]-PtdIns transfer assay with recombinant mutant Sec14ps; type: biochemical, S. cerevisiae; details: all mutant proteins but one
Sec14p^V155A = assay: [3H]-PtdIns transfer assay with recombinant Sec14p V155A; type: biochemical, S. cerevisiae
S. cerevisiae BY4743Δ8 [7] = assay: MIC on solid medium; type: cell-based, Saccharomyces cerevisiae; details: 72 hours, 30°C

Compound	IC50 [1] [µM]	fold IC50 shift S. cerevisiae wildtype/wildtypeΔ8 (S. cerevisiae BY4743Δ8 [2]) [x fold]	fitness of SEC14/sec14Δ heterozygote relative to isogenic wildtype (in words) [3]	IC50 [3] [µM]	IC50 (HCT116 cells) [µM]	pIC50 (Sec14p)	inhibition of Sec14p-mediated PtdIns-transfer (in words) (Sec14p)	pIC50 (Sec14p of C. glabrata)	pIC50 (Sec14p of C. albicans)	inhibition of PtdIns-transfer by C. albicans protein (in words) (Sec14p of C. albicans)	solubility in pure aqueous solutions (in words) [4]	growth of bypass Sec14p mutants under compound challenge (in words) [5]	inhibition of PtdIns-transfer by mammalian PITPα (in words) (PITPα)	sensitivity of mutant Sec14ps other than V155A (in words) [6]	increase in IC50 of Sec14p^V155A relative to wild-type Sec14p (Sec14p^V155A) [fold]	Minimal inhibitory concentration S. cerevisiae BY4743Δ8 (S. cerevisiae BY4743Δ8 [7]) [µM]
O=C(NCc1ccc2c(c1)OCO2)c1ncc(Br)cc1F [Compound 2]	28.5	2.7	decreased fitness	9.4	> 100	5.17	clear inhibition	4.96	< 4.00	did not inhibit	better solubility than compound 3	indifferent to challenge	no such inhibitory effects	–	–	–
O=C(NCc1ccc2c(c1)OCO2)c1ccc(Br)cc1F [Compound 3]	7	2.8	decreased fitness	1.7	> 100	–	clear inhibition	–	–	did not inhibit	–	indifferent to challenge	no such inhibitory effects	essentially indifferent	17	–
CC[C@@H]([C@H](C)O)n1ncn(-c2ccc(N3CCN(c4ccc(OC[C@@H]5CO[C@@](Cn6cncn6)(c6ccc(F)cc6F)C5)cc4)CC3)cc2)c1=O [Posaconazole]	–	–	–	–	–	–	–	–	–	–	–	–	–	–	–	<0.3
